Results as given in patent US20260078103A1, “ISOQUINOLONES AS PI3K INHIBITORS” (OnKure, Inc., priority 2022, published 2026).
pEC50, pIC50: −log10 of the molar value. Like-named read-outs stand apart in the source and are kept apart here.

Key:
[1] = tested on: T47D cells expressing mutant PI3Ka (H1047R); experiment: In vitro cell proliferation, T47D cells (CellTiter-Glo); type: cell-based; details: inhibition of proliferation, read-out: Avg T-47D EC50
In short: (§1)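 Proliferation was read by CellTiter-Glo luminescence after 72 h of exposure to 10-point compound dilutions at 37 °C and 5% CO2. T47D (RPMI, 10% FBS, insulin 0.2 units/mL) and SKBR3 (McCoys 5a, 10% FBS) cells were seeded at 1,500 cells/well. EC50 was fitted from inhibition relative to DMSO and 10 uM Alpelisib.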

[2] = tested on: SKBR3 cells express WT PI3Ka; experiment: In vitro cell proliferation, SKBR3 cells (CellTiter-Glo); type: cell-based; details: inhibition of proliferation
In short: as §1

[3] = tested on: phosphorylation of AKT (pAKT) in T47D cells expressing mutant PI3Ka (H1047R); experiment: In vitro cell pAKT (Ser473) HTRF, T47D cells; type: cell-based
In short: (§2)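 Cells seeded on plates pre-stamped with 10-point compound dilutions, then grown 6 h at 37 °C (T47D in RPMI/10% FBS/insulin; SKBR3 in McCoy's 5a/10% FBS). Lysates read for pAKT Ser473 by HTRF after overnight antibody incubation. Inhibition normalised to 0.1% DMSO and 10 uM alpelisib; IC50 by four-parameter fit.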

[4] = tested on: phosphorylation of AKT (pAKT) in SKBR3 cells express WT PI3Ka; experiment: In vitro cell pAKT (Ser473) HTRF, SKBR3 cells; type: cell-based
In short: as §2

[5] = Mouse pharmacokinetics, single IV or PO dose, plasma LC/MS/MS; type: in vivo; details: CD1 mice; for PK-Mouse: PO F: PO 10 mg/kg vs IV 1 mg/kg; for AUC(0-t) / clearance: mouse, plasma; for clearance: read-out: PK-Mouse: IV Cl
Procedure: CD1 mice were dosed with a single IV or PO dose, followed by serial sampling of plasma at 0.0833 (IV only), 0.25, 0.5, 1, 2, 4, 8, 24 hours post dose. Desired serial concentrations of working solutions were achieved by diluting stock solution of analyte with 50% acetonitrile in water solution.10 μL of working solutions […] were added to 10 μL of the blank Female CD1 Mouse plasma to achieve calibration standards of 0.5˜1000 ng/ml (0.5, 1, 2, 5, 10, 50, 100, 500, 1000 ng/ml) in a total volume of 20 μL. Five quality control samples at 1 ng/ml, 2 ng/ml, 5 ng/ml, 50 ng/ml and 800 ng/ml for plasma were prepared independently of those used for the calibration curves. These QC samples were prepared on the day of analysis in the same way as calibration standards. 20 μL standards, 20 μL QC samples and 20 μL unknown samples (10 μL plasma with 10 μL blank solution) were added to 200 μL of acetonitrile containing IS mixture for precipitating protein respectively. Then the samples were vortexed for 30 s. after centrifugation at 4° Celsius, 4000 rpm for 15 min. The supernatant was diluted with water at a ratio of 1:2 (V/V, 1:2), Then 5 μL of diluted supernatant was injected into the LC/MS/MS system for quantitative analysis.

[6] = IV 1 mg/kg, 20% PEG400/20% PG/60% of 20% HPβCD solution in water, read-out: PK-Mouse: IV AUC last
[7] = IV 1 mg/kg, 20% PEG400/20% PG/60% of 20% HPβCD solution in water
[8] = PO 10 mg/kg, 30% SBEβCD in water, read-out: PK-Mouse PO AUC last
[9] = cellular pAKT, T47D cells, mutant PI3Ka (H1047R), 6 hours; read-out: Avg T-47D IC50
[10] = Homo sapiens, T47D, 6 h, cellular pAKT, T47D cells, mutant PI3Ka (H1047R), 6 hours; read-out: Avg T-47D IC50
[11] = Homo sapiens, SK-BR-3, 6 h, cellular pAKT

| SMILES | pEC50 ([1]; 72 hours) | pEC50 ([2]; 72 hours) | PK-Mouse: PO F [5] [%] | AUC(0-t) [5, 6] [ng·h/mL] | clearance [5, 7] [mL/min/kg] | AUC(0-t) [5, 8] [ng·h/mL] | pIC50 [3, 9] | pIC50 ([4]; cellular pAKT, 6 hours) | pEC50 ([1]; Homo sapiens, T47D, 72 h) | pEC50 ([2]; Homo sapiens, SK-BR-3, 72 h) | pIC50 [3, 10] | pIC50 [4, 11] | pIC50 ([3]; read-out: Avg T-47D IC50; cellular pAKT, T47D cells, mutant PI3Ka (H1047R), 6 hours) | pIC50 ([4]; Homo sapiens, SK-BR-3, cellular pAKT, 6 hours) |
| --- | --- | --- | --- | --- | --- | --- | --- | --- | --- | --- | --- | --- | --- | --- |
| Cc1cc(C(C)Nc2ccccc2C(=O)O)c2cc(N3CCC(C)(C)CC3)n(C)c(=O)c2c1 (single isomer, unassigned) [Example 1, 2-((1-(3-(4,4-dimethylpiperidin-1-yl)-2,7-dimethyl-1-oxo-1,2-dihydroisoquinolin-5-yl)ethyl)amino)benzoic acid] | 6.30 to 9.00 | 4.82 to 5.70 | 50 | 3060 | 5.7 | 15200 | – | – | – | – | – | – | 6.30 to 9.00 | < 4.82 |
| Cc1cc(C(C)Nc2ccccc2C(=O)O)c2cc(N3CCN(CC(F)(F)F)CC3)n(C)c(=O)c2c1 (single isomer, unassigned) [Example 8, 2-((1-(2,7-dimethyl-1-oxo-3-(4-(2,2,2-trifluoroethyl)piperazin-1-yl)-1,2-dihydroisoquinolin-5-yl)ethyl)amino)benzoic acid] | 6.30 to 9.00 | 4.82 to 5.70 | 62 | 1440 | 11.7 | 8900 | 6.30 to 9.00 | 4.82 to 5.70 | – | – | – | – | – | – |
| Cc1cc(C(C)Nc2ccc(Cl)nc2C(=O)O)c2cc(C3=CCC(C)(C)CC3)n(C)c(=O)c2c1 (single isomer, unassigned) [Example 23, 6-chloro-3-((1-(3-(4,4-dimethylcyclohex-1-en-1-yl)-2,7-dimethyl-1-oxo-1,2-dihydroisoquinolin-5-yl)ethyl)amino)picolinic acid] | 6.30 to 9.00 | 4.82 to 5.70 | 106 | 683 | 24.6 | 7230 | 5.70 to 6.30 | < 4.82 | – | – | – | – | – | – |
| C[C@@H](Nc1ccccc1C(=O)O)c1cc(F)cc2c(=O)n(C)c(C34CC(c5cnn(C(F)F)c5)(C3)C4)c(F)c12 [Example 580] | – | – | – | – | – | – | – | – | 6.30 to 9.00 | 4.82 to 5.70 | 6.30 to 9.00 | 4.82 to 5.70 | – | – |

Now from value to compound, other results behind:

| pEC50 ([1]; 72 hours) | pEC50 ([2]; 72 hours) | PK-Mouse: PO F [5] [%] | AUC(0-t) [5, 6] [ng·h/mL] | clearance [5, 7] [mL/min/kg] | AUC(0-t) [5, 8] [ng·h/mL] | pIC50 [3, 9] | pIC50 ([4]; cellular pAKT, 6 hours) | pEC50 ([1]; Homo sapiens, T47D, 72 h) | pEC50 ([2]; Homo sapiens, SK-BR-3, 72 h) | pIC50 [3, 10] | pIC50 [4, 11] | SMILES | pIC50 ([3]; read-out: Avg T-47D IC50; cellular pAKT, T47D cells, mutant PI3Ka (H1047R), 6 hours) | pIC50 ([4]; Homo sapiens, SK-BR-3, cellular pAKT, 6 hours) |
| --- | --- | --- | --- | --- | --- | --- | --- | --- | --- | --- | --- | --- | --- | --- |
| – | – | – | – | – | – | – | – | 6.30 to 9.00 | < 4.82 | 6.30 to 9.00 | < 4.82 | COc1ncc(-c2c(F)c3c([C@@H](C)Nc4ccccc4C(=O)O)cc(F)cc3c(=O)n2C)s1 [Example 581] | – | – |
| – | – | – | – | – | – | – | – | 6.30 to 9.00 | < 4.82 | 6.30 to 9.00 | < 4.82 | Cc1ncc(-c2c(F)c3c([C@@H](C)Nc4ccccc4C(=O)O)cc(F)cc3c(=O)n2C)s1 [Example 582] | – | – |
